Peptide text beside a SMILES is read from it.

The target in the experiment is T1, hSortilin (Homo sapiens, UniProt Q99523).
T1 sequence (Q99523 78-831): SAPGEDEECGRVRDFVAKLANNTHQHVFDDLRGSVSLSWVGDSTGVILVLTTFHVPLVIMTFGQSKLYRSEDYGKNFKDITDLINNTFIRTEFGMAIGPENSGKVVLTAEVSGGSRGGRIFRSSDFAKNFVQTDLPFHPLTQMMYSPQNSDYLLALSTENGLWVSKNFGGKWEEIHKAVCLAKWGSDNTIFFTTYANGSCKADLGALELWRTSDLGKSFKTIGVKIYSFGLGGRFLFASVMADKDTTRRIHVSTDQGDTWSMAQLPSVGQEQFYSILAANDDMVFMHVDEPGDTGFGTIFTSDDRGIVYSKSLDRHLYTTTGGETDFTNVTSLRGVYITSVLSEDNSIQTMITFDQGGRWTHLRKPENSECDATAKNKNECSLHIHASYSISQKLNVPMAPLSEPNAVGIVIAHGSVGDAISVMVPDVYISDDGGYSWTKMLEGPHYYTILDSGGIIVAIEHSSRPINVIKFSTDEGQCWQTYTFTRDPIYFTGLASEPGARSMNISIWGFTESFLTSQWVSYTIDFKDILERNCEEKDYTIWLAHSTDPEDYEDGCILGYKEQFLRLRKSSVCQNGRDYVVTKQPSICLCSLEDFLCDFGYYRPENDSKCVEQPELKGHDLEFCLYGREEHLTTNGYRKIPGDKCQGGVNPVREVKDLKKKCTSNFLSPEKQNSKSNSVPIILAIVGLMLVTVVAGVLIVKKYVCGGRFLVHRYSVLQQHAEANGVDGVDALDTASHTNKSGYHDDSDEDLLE
Put plainly: Neurotensin scintillation proximity assay (displacement of [3H]-neurotensin binding). To be noted: displacement of 5 nM [3H]-neurotensin from 150 nM 6his-Sortilin; average of at least 2 determinations; read-out: IC50 [3H]Neurotensin SPA. The method, then:
The data of exemplified compounds of the invention tested in a Neurotensin (NTS) scintillation proximity assay (SPA). NTS, which is a 13 amino acid neuropeptide, is a sortilin ligand. The IC50 is a measure of the amount of the compound required to inhibit the binding of NTS to sortilin by 50%.
Compound affinity was determined by measuring the displacement of [^3H]-neurotensin binding to hSortilin in SPA format. Total volume of 40 μl in 50 mM HEPES pH 7.4 assay buffer containing 100 mM NaCl, 2.0 mM CaCl2, 0.1% BSA and 0.1% Tween-20. Compound pre-incubation for 30 minutes at room temperature with 150 nM of 6his-Sortilin before 5 nM [3H]-Neurotensin and Ni chelate imaging beads (Perkin Elmer) were added, after 6 hours the plate was read on a ViewLux with 360 s exposure time. Dose-response evaluation of compounds was performed with 8 concentrations of drugs (covering 3 decades). IC50 values were calculated by nonlinear regression using the sigmoid concentration-response (variable slope) using CDD Vault software. All values reported are average of at least 2 determinations.
A general note: In a scintillation proximity assay essentially only radioactivity close to the scintillant gives light.
`CC[C@H](C)[C@H](NC(=O)CNC(=O)[C@@H]1CCCN1)C(=O)N[C@@H](CCC(C)(C)C)C(=O)O` [Example 16, (2S)-5,5-Dimethyl-2-((3S)-3-methyl-2-(2-((S)-pyrrolidine-2-carboxamido)acetamido)pentanamido) hexanoic acid] (HELM PEPTIDE1{P.G.I.[CC(C)(C)CC[C@H](N[*:1])C(=O)O]}$$$$V2.0): the half-inhibitory concentration (IC50) was determined as 80 nM.
On to `CC(C)(C)CC[C@H](NC(=O)[C@H](Cc1ccncc1)NC(=O)[C@H](Cc1ccc(O)cc1)NC(=O)[C@@H]1CCCN1)C(=O)O` [Example 8, (S)-2-((S)-2-((S)-3-(4-Hydroxyphenyl)-2-((S)-pyrrolidine-2-carboxamido)propan amido)-3-(pyridin-4-yl)propanamido)-5,5-dimethylhexanoic acid] (HELM PEPTIDE1{P.Y.[O=C([C@H](Cc1ccncc1)N[*:1])[*:2]].[CC(C)(C)CC[C@H](N[*:1])C(=O)O]}$$$$V2.0), for which the IC50 worked out at 200 nM.
As for `Cn1cncc1C[C@H](NC(=O)[C@H](Cc1ccc(O)cc1)NC(=O)[C@@H]1CCCN1)C(=O)N[C@@H](CCC(C)(C)C)C(=O)O` [Example 32, (S)-2-((S)-2-((S)-3-(4-Hydroxyphenyl)-2-((S)-pyrrolidine-2-carboxamido)propan amido)-3-(1-methyl-1H-imidazol-5-yl)propanamido)-5,5-dimethylhexanoic acid.di-formic acid] (HELM PEPTIDE1{P.Y.[Cn1cncc1C[C@H](N[*:1])C(=O)[*:2]].[CC(C)(C)CC[C@H](N[*:1])C(=O)O]}$$$$V2.0), the figure is 100 nM; as for `CC(C)(C)CC[C@H](NC(=O)[C@H](CN1CCOCC1)NC(=O)[C@H](Cc1ccc(O)cc1)NC(=O)[C@@H]1CCCN1)C(=O)O` [Example 13, (S)-2-((S)-2-((S)-3-(4-Hydroxyphenyl)-2-((S)-pyrrolidine-2-carboxamido)propan amido)-3-morpholinopropan-amido)-5,5-dimethylhexanoic acid] (HELM PEPTIDE1{P.Y.[O=C([C@H](CN1CCOCC1)N[*:1])[*:2]].[CC(C)(C)CC[C@H](N[*:1])C(=O)O]}$$$$V2.0), 160 nM; as for `CC[C@H](C)[C@H](NC(=O)[C@H](Cc1ccc(O)cc1)NC(=O)[C@H]1CCNC1)C(=O)N[C@@H](CCC(C)(C)C)C(=O)O` [Example 20, (S)-2-((2S,3S)-2-((S)-3-(4-Hydroxyphenyl)-2-((S)-pyrrolidine-3-carboxamido)propan amido)-3-methylpentanamido)-5,5-dimethylhexanoic acid], 150 nM.
Consider `CC(C)(C)CC[C@H](NC(=O)[C@H](Cc1cscn1)NC(=O)[C@H](CCC(N)=O)NC(=O)[C@@H]1CCCN1)C(=O)O` [Example 11, (S)-2-((S)-2-((S)-5-Amino-5-oxo-2-((S)-pyrrolidine-2-carboxamido)pentan amido)-3-(thiazol-4-yl)propanamido)-5,5-dimethylhexanoic acid] (HELM PEPTIDE1{P.Q.[O=C([C@H](Cc1cscn1)N[*:1])[*:2]].[CC(C)(C)CC[C@H](N[*:1])C(=O)O]}$$$$V2.0), for which the IC50 worked out at 60 nM.
`CC(C)(C)CC[C@H](NC(=O)[C@H](Cc1cscn1)NC(=O)[C@H](Cc1ccc(O)cc1)NC(=O)[C@@H]1CCCN1)C(=O)O` [Example 12, (S)-2-((S)-2-((S)-3-(4-Hydroxyphenyl)-2-((S)-pyrrolidine-2-carboxamido)propan amido)-3-(thiazol-4-yl)propanamido)-5,5-dimethylhexanoic acid] (HELM PEPTIDE1{P.Y.[O=C([C@H](Cc1cscn1)N[*:1])[*:2]].[CC(C)(C)CC[C@H](N[*:1])C(=O)O]}$$$$V2.0): the IC50 was determined as 70 nM.
As to `CC[C@H](C)[C@H](NC(=O)[C@H](Cc1ccc(O)cc1)NC(C)=O)C(=O)N[C@@H](CCC(F)(F)F)C(=O)O` [Example 3, (S)-2-((2S,3S)-2-((S)-2-Acetamido-3-(4-hydroxyphenyl)propanamido)-3-methylpentanamido)-5,5,5-trifluoropentanoic acid], the IC50 is 1110 nM.
With `CC(C)(C)CC[C@H](NC(=O)[C@H](Cc1cccnc1)NC(=O)[C@H](Cc1ccc(O)cc1)NC(=O)[C@@H]1CCCN1)C(=O)O` [Example 6, (S)-2-((S)-2-((S)-3-(4-Hydroxyphenyl)-2-((S)-pyrrolidine-2-carboxamido)propan amido)-3-(pyridin-3-yl)propanamido)-5,5-dimethylhexanoic acid] (HELM PEPTIDE1{P.Y.[O=C([C@H](Cc1cccnc1)N[*:1])[*:2]].[CC(C)(C)CC[C@H](N[*:1])C(=O)O]}$$$$V2.0), the IC50 is 90 nM.
For the compound `CC[C@H](C)[C@H](NC(=O)[C@H](Cc1ccc(O)cc1)NC(=O)[C@H]1CCCO1)C(=O)N[C@@H](CCC(F)(F)F)C(=O)O` [Example 2, (2S)-5,5,5-trifluoro-2-[(2S,3S)-2-[(S)-3-(4-hydroxyphenyl)-2-{[(2R)-oxolan-2-yl]formamido}propanamido]-3-methylpentanamido] pentoic acid], the IC50 was found to be 2860 nM.
On to `CC[C@H](C)[C@H](NC(=O)[C@H](Cc1ccc(O)cc1)NC(C)=O)C(=O)N[C@@H](CCC(C)(C)C)C(=O)O` [Example 28, (S)-2-((2S,3S)-2-((S)-2-Acetamido-3-(4-hydroxyphenyl)propanamido)-3-methylpentanamido)-5,5-dimethylhexanoic acid], for which the 50% inhibitory concentration (IC50) was found to be 190 nM.
The value for `CC(C)(C)CC[C@H](NC(=O)[C@H](Cc1ccsc1)NC(=O)[C@H](Cc1ccc(O)cc1)NC(=O)[C@@H]1CCCN1)C(=O)O` [Example 9, (S)-2-((S)-2-((S)-3-(4-Hydroxyphenyl)-2-((S)-pyrrolidine-2-carboxamido)propan amido)-3-(thiophen-3-yl)propanamido)-5,5-dimethylhexanoic acid] (HELM PEPTIDE1{P.Y.[O=C([C@H](Cc1ccsc1)N[*:1])[*:2]].[CC(C)(C)CC[C@H](N[*:1])C(=O)O]}$$$$V2.0) was 140 nM.
Regarding `CC(C)(C)CC[C@H](NC(=O)[C@H](Cc1c[nH]c2ccccc12)NC(=O)[C@H](Cc1ccc(O)cc1)NC(=O)[C@@H]1CCCN1)C(=O)O` [Example 14, (S)-2-((S)-2-((S)-3-(4-Hydroxyphenyl)-2-((S)-pyrrolidine-2-carboxamido)propan amido)-3-(1H-indol-3-yl)propanamido)-5,5-dimethylhexanoic acid] (HELM PEPTIDE1{P.Y.W.[CC(C)(C)CC[C@H](N[*:1])C(=O)O]}$$$$V2.0), the IC50 worked out at 60 nM.
On to `CC[C@H](C)[C@H](NC(=O)[C@H](Cc1ccc(O)cc1)NC(=O)[C@H]1CNCCO1)C(=O)N[C@@H](CCC(C)(C)C)C(=O)O` [Example 30, (S)-2-((2S,3S)-2-((S)-3-(4-Hydroxyphenyl)-2-((R)-morpholine-2-carboxamido)propan amido)-3-methylpentanamido)-5,5-dimethylhexanoic acid], for which the concentration for half-maximal inhibition (IC50) was found to be 90 nM.
As to `CC[C@H](C)[C@H](NC(=O)[C@H](Cc1ccc(O)cc1)NC(=O)[C@@H]1CNCCN1)C(=O)N[C@@H](CCC(C)(C)C)C(=O)O` [Example 19, (S)-2-((2S,3S)-2-((S)-3-(4-Hydroxyphenyl)-2-((S)-piperazine-2-carboxamido)propan amido)-3-methylpentanamido)-5,5-dimethylhexanoic acid] (HELM PEPTIDE1{[O=C([C@@H]1CNCCN1)[*:2]].Y.I.[CC(C)(C)CC[C@H](N[*:1])C(=O)O]}$$$$V2.0), the IC50 came out at 100 nM.

The IC50 is the concentration needed to halve the response being measured.

(Values after patent US20240294569A1, “MODULATORS OF SORTILIN ACTIVITY” (Insusense ApS, priority 2021, published 2024).)
